Reference: US9435786B2, “Method for determining differentiation level of pluripotent stem cells” (HAMAMATSU PHOTONICS K.K., priority 2012, dated 2016)

How the values were obtained:
Format in all cases: cell-based
[1] = test system: 253G1 iPS cell line derived from a human adult fibroblast; assay: Flatness of cell surface in a whole visual field, reflection quantitative phase microscope (Example 1); details: 12.5 μM retinoic acid, cultured another 4 days
Protocol: Onto an antireflectively coated glass bottom dish with 35 mm diameter, a 253G1 iPS cell line derived from a human adult fibroblast was seeded at 10 to 20 colonies/dish and cultured on feeder using a Primate ES Medium (manufactured by ReproCELL Incorporated, a commercial name: RCHEMD001) containing 4 ng/mL human basic FGF in the final concentration. The size of one colony was around 200 μn. As the feeder cells, mouse lung fibroblasts were used. The cells were cultured until the third day after the seeding. The medium was replaced once a day. […]
The shape of the cells was observed using a reflection quantitative phase microscope. […]
The bottom surface and surface shapes of the cell were extracted as follows. By using a reflection quantitative phase microscope, three-dimensional data for the cells in a 60 μm×80 μm visual field were obtained every 0.125 μm in the horizontal direction and every 0.32 μm in the vertical direction, and from the obtained data, tomogram images were created. […] From the obtained bottom surfaces and surface shapes, the height of the surface of the cells was measured. The flatness was calculated as a standard deviation of height of the surface of the cells which was standardized with a mean value of height of the surface of the cells, and a statistical processing was done.

[2] = test system: 253G1 iPS cell line derived from a human adult fibroblast; assay: Flatness per ROI as standard deviation of height standardized with mean height (Example 2); details: ROI unit, 12.5 μM retinoic acid
Protocol: Onto an antireflectively coated glass bottom dish with 35 mm diameter, a 253G1 iPS cell line derived from a human adult fibroblast was seeded at 10 to 20 colonies/dish and cultured on feeder using a Primate ES Medium (manufactured by ReproCELL Incorporated, a commercial name: RCHEMD001) containing 4 ng/mL human basic FGF in the final concentration. The size of one colony was around 200 μn. As the feeder cells, mouse lung fibroblasts were used. The cells were cultured until the third day after the seeding. The medium was replaced once a day.
A sample of the iPS cells for differentiation, the medium of which was replaced with a Primate ES Medium containing 4 ng/mL human basic FGF and 12.5 μM retinoic acid in the final concentration on the second day after the seeding, was cultured for another 4 days. Retinoic acid is generally used as a reagent for inducing differentiation. In addition, for a control of differentiated cells, MCF7 cells were used which were human breast cancer-derived epithelial cells. The MCF7 cells were seeded at 20% cell density and cultured for 3 days to be approximately confluent using 10% FBS-containing DMEM medium. In each culture system except the MCF7 cell culture system, the medium was replaced once a day.
As to 3 colonies of the undifferentiated iPS cells and 3 colonies of the iPS cells cultured by supplementing retinoic acid, 7 to 15 visual fields around the center of each colony were analyzed. Each visual field was partitioned into six ROIs, and the bottom surfaces and surface shapes of the cells were extracted for each ROI unit to measure the height of the surface of the cells under the same condition as that of Example 1. The size of the ROI was […]×23 μm. The flatness was calculated as a standard deviation of height of the surface of the cells which was standardized with a mean value of height of the surface of the cells, and a statistical processing was done to perform Student's t-test.

[3] = test system: 253G1 iPS cell line derived from a human adult fibroblast; assay: Variogram analysis, MSHD standardized with mean height, per ROI (Example 3); details: Δr 15 μm, ROI unit
Description: The flatness may also be a value of MSHD in a predetermined horizontal distance. When a surface shape Z (x, y) is given and two points, A (x1, y1) and B (x2, y2), which are apart from each other at a Δr in the horizontal direction on the Z, are selected, the MSHD can be represented by formula (I). MSHD(Δr)=<(z(x1,y1)−z(x2,y2))^2> (I)
wherein z (x1, y1) is a height of a surface of the cell at A, z (x2, y2) is a height of a surface of the cell at B, and < > is an ensemble average. In addition, (x1, y1) and (x2, y2) are in any combination that satisfies formula (II). Δr=((x1−x2)^2+(y1−y2)^2)^1/2 (II)
Under the same condition as that of Example 2, three-dimensional data for the undifferentiated iPS cells and the iPS cells cultured by supplementing retinoic acid were obtained every 0.125 μm in the horizontal direction and every 0.32 μm in the vertical direction, and from the obtained data, tomogram images were created. From the created tomogram images, the bottom surfaces and surface shapes of the cells were extracted and a variogram analysis was performed. Specifically, a value of MSHD when the Δr was within a range of 0.25 μm to 15 μm was calculated from formula (I) as described above, and standardized with a mean value of height of the surface of the cells.
Next, a value of MSHD when the Δr was […] was calculated and standardized with a mean value of height of the surface of the cells to calculate the flatness. The result was shown as a logarithmic graph (FIG. 6). In a statistical analysis, the common logarithm of the result was calculated to perform Student's t-test (Table 3).

[4] = test system: 253G1 iPS cell line derived from a human adult fibroblast; assay: Slope of variogram as flatness, per ROI (Example 4); details: Δr 5 μm to 15 μm, ROI unit
Description: The flatness may also be a slope of a variogram in a horizontal distance between the predetermined two points. In this case, as the numerical value is smaller, the cell is flatter and less differentiated, and as the numerical value is larger, the cell is less flat and is more differentiated. The horizontal distance between the predetermined two points is not limited in particular, as long as the distance is between points enough to definitely determine the difference between undifferentiated pluripotent stem cell and differentiated cell. The relationship between a mean square height difference and a slope of a variogram can be represented by formula (III). MSHD(Δr)∝Δr^S (III)
wherein S is a slope of a graph which represents a variogram in a double logarithmic manner. It should be noted that because of the nature of a log-log graph, even when constantly multiplying the abscissa Δr or ordinate MSHD through the standardization, the graph is only translated parallelly and the slope S is constant with respect to the constantly multiplied abscissa and ordinate. In addition, as shown in the above-mentioned document of Glenn, N. et al., it is a known mathematical approach to represent a variogram by log-log graph and evaluate the statistical nature of the surface shape by slope S.
Under the same condition as that of Example 3, a variogram analysis was performed using a value of MSHD which was standardized with a mean value of height of the surface of the cells, and a slope of the variogram when the Δr was within a range of 5 μm to 15 μm was calculated as the flatness, using formula (III) as described above. Then, a statistical analysis was done to perform Student's t-test.

[5] = test system: 253G1 iPS cell line derived from a human adult fibroblast; assay: Flatness as MSHD per visual field unit (Example 6)
Protocol: By using images shot using each sample in Example 2 of one colony (15 visual fields) for the undifferentiated iPS cells and 2 colonies (11 and 13 visual fields, respectively) for the iPS cells cultured by supplementing retinoic acid, the height of the surface of the cells for each visual field unit was measured using a reflection quantitative phase microscope under the same condition as that of Example 2. A value of MSHD when the Δr was 5 μm was calculated and standardized with a mean value of height of the surface of the cells, then the common logarithm was taken and the flatness was calculated. A statistical analysis was done to perform Student's t-test.

SMILES: CC1=C(/C=C/C(C)=C/C=C/C(C)=C/C(=O)O)C(C)(C)CCC1 [Retinoic acid, retinoic acid]
- Mean value of height of the surface of the cells ([1]; 60 μm×80 μm visual field): 6.25 μm
- Flatness (standard deviation of height standardized with mean height) ([1]; iPS cells, larger value = less flat): 18.9%
- Flatness (standard deviation of height standardized with mean height) ([2]; colony RA-1): 0.130
- Flatness (standard deviation of height standardized with mean height) ([2]; colony RA-2): 0.107
- Flatness (standard deviation of height standardized with mean height) ([2]; colony RA-3): 0.123
- Flatness (common logarithm of MSHD standardized with mean height) ([3]; colony RA-1): −1.392
- Flatness (common logarithm of MSHD standardized with mean height) ([3]; colony RA-2): −1.517
- Flatness (common logarithm of MSHD standardized with mean height) ([3]; colony RA-3): −1.425
- Flatness (slope of variogram) ([4]; colony RA-1): 0.848
- Flatness (slope of variogram) ([4]; colony RA-2): 0.744
- Flatness (slope of variogram) ([4]; colony RA-3): 0.880
- Flatness (common logarithm of MSHD standardized with mean height) ([5]; colony RA-1, Δr 5 μm): −1.657
- Flatness (common logarithm of MSHD standardized with mean height) ([5]; colony RA-2, Δr 5 μm): −1.796
